Results published in patent US11447465B2, “Pharmaceutical compounds for treatment of medical disorders” (Achillion Pharmaceuticals, Inc., priority 2017, dated 2022).

These compounds were tested against Human Factor D (Homo sapiens (Human), UniProt P00746) (assay: Human Factor D Assay). Conditions: Table 7; read-out: IC5 (Stars).
Format: biochemical
Summary of the method: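 Serum-purified human factor D (80 nM final) preincubated with compound 5 min at room temperature in 50 mM Tris, 1 M NaCl, pH 7.5. Z-L-Lys-SBzl and DTNB added at 100 μM each; A405 followed every 30 s for 30 min. IC50 by nonlinear regression of rates.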

Chain of Human Factor D (P00746 26-253): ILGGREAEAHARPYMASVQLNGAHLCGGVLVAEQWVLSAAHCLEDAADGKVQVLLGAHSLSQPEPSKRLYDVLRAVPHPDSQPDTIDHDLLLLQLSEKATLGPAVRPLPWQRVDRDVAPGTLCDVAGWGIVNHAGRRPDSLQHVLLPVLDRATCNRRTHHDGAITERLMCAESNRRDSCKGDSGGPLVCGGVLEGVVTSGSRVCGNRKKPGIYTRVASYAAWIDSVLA

| SMILES | IC50 [µM] |
| --- | --- |
| CC(=O)c1nn(CC(=O)N2[C@H](C(=O)Nc3nc(Br)ccc3C)C[C@@]3(C)C[C@@H]23)c2cc(OCP(=O)(O)O)ccc12 [Compound T-132, (((3-acetyl-1-(2-((1R,3S,5R)-3-((6-bromo-3-methylpyridin-2-yl)carbamoyl)-5-methyl-2-azabicyclo[3.1.0]hexan-2-yl)-2-oxoethyl)-1H-indazol-6-yl)oxy)methyl)phosphonic acid] | < 1 |
| CC(=O)c1nn(CC(=O)N2C(C(=O)Nc3nc(Br)ccc3C)C[C@@]3(Cn4cc(C5CC5)nn4)C[C@@H]23)c2cnccc12 (stereo partly drawn) [Compound T-139, (1R,3S,5R)-2-(2-(3-acetyl-1H-pyrazolo[3,4-c]pyridin-1-yl)acetyl)-N-(6-bromo-3-methylpyridin-2-yl)-5-((4-cyclopropyl-1H-1,2,3-triazol-1-yl)methyl)-2-azabicyclo[3.1.0]hexane-3-carboxamide] | < 1 |
| COc1cc(CC(=O)N2[C@H](C(=O)Nc3nc(Br)ccc3C)C[C@@]3(C)C[C@@H]23)cc(-c2cnc(OC)nc2)c1 [Compound T-153, (1R,3S,5R)-N-(6-bromo-3-methylpyridin-2-yl)-2-(2-(3-methoxy-5-(2-methoxypyrimidin-5-yl)phenyl)acetyl)-5-methyl-2-azabicyclo[3.1.0]hexane-3-carboxamide] | 1 to 10 |
| Cc1ccc(Br)nc1NC(=O)[C@@H]1C[C@@]2(C)C[C@H]2N1C(=O)Cc1ccc2[nH]nc(Cl)c2c1 [Compound T-155, (1R,3S,5R)-N-(6-bromo-3-methylpyridin-2-yl)-2-(2-(3-chloro-1H-indazol-5-yl)acetyl)-5-methyl-2-azabicyclo[3.1.0]hexane-3-carboxamide] | 1 to 10 |
| Cc1ccc(Br)nc1NC(=O)[C@@H]1C[C@@]2(C)C[C@H]2N1C(=O)Cc1ccc2[nH]nc(C(=O)O)c2c1 [Compound T-158, 5-(2-((1R,3S,5R)-3-((6-bromo-3-methylpyridin-2-yl)carbamoyl)-5-methyl-2-azabicyclo[3.1.0]hexan-2-yl)-2-oxoethyl)-1H-indazole-3-carboxylic acid] | 1 to 10 |
| Cc1ncc(-c2cc(CC(=O)N3C[C@H](F)C[C@H]3C(=O)Nc3cccc(Br)n3)cc(C(N)=O)c2)cn1 [Compound T-167, (2S,4R)-N-(6-bromopyridin-2-yl)-1-(2-(3-carbamoyl-5-(2-methylpyrimidin-5-yl)phenyl)acetyl)-4-fluoropyrrolidine-2-carboxamide] | 1 to 10 |
| Cc1ncc(-c2cc(CC(=O)N3[C@H](C(=O)Nc4nc(Br)ccc4C)C[C@@]4(C)C[C@@H]34)cc(C(N)=O)c2)cn1 [Compound T-169, (1R,3S,5R)-N-(6-bromo-3-methylpyridin-2-yl)-2-(2-(3-carbamoyl-5-(2-methylpyrimidin-5-yl)phenyl)acetyl)-5-methyl-2-azabicyclo[3.1.0]hexane-3-carboxamide] | 1 to 10 |
| Cc1ncc(-c2cc(C#N)cc(CC(=O)N3C[C@H](F)C[C@H]3C(=O)Nc3cccc(Br)n3)c2)cn1 [Compound T-170, (2S,4R)-N-(6-bromopyridin-2-yl)-1-(2-(3-cyano-5-(2-methylpyrimidin-5-yl)phenyl)acetyl)-4-fluoropyrrolidine-2-carboxamide] | 1 to 10 |
| Cc1ncc(-c2cc(C#N)cc(CC(=O)N3[C@H](C(=O)Nc4nc(Br)ccc4C)C[C@@]4(C)C[C@@H]34)c2)cn1 [Compound T-171, (1R,3S,5R)-N-(6-bromo-3-methylpyridin-2-yl)-2-(2-(3-cyano-5-(2-methylpyrimidin-5-yl)phenyl)acetyl)-5-methyl-2-azabicyclo[3.1.0]hexane-3-carboxamide] | 1 to 10 |
| Cc1ncc(-c2cc(CC(=O)N3C[C@H](F)C[C@H]3C(=O)Nc3cccc(-c4ccccc4Cl)c3F)cc(OCC(=O)O)c2)cn1 [Compound T-176, 2-(3-(2-((2S,4R)-2-((2′-chloro-2-fluoro-[1,1′-biphenyl]-3-yl)carbamoyl)-4-fluoropyrrolidin-1-yl)-2-oxoethyl)-5-(2-methylpyrimidin-5-yl)phenoxy)acetic acid] | 1 to 10 |
| Cc1ccc(Br)nc1NC(=O)[C@@H]1C[C@@]2(CNC(=O)COCCOCCNC(=O)COCCOCCNC(=O)CC[C@H](NC(=O)CCCCCCCCCCCCCCCCC(=O)O)C(=O)O)C[C@H]2N1C(=O)Cn1nc(C(N)=O)c2cc(C#Cc3ncc(F)cn3)ccc21 [Compound T-177, (S)-1-((1R,3S,5R)-3-((6-bromo-3-methylpyridin-2-yl)carbamoyl)-2-(2-(3-carbamoyl-5-((5-fluoropyrimidin-2-yl)ethynyl)-1H-indazol-1-yl)acetyl)-2-azabicyclo[3.1.0]hexan-5-yl)-24-carboxy-3,12,21,26-tetraoxo-5,8,14,17-tetraoxa-2,11,20,25-tetraazatritetracontan-43-oic acid] | < 1 |
